Data published in patent publication US7589177B2, “Nucleic acid molecules encoding cyclotide polypeptides and methods of use” (E.I. du Pont de Nemours & Company, priority 2004, dated 2009).

What was measured:
Caenorhabditis elegans [1] = assay: Nematocidal activity of cyclotide 2 against C. elegans (dose-response, development score); assay type: in vivo; design: key to Replicate 1 Score (nematode development) / Replicate 2 Score (nematode development): 1: no development; 2: little development; 5: medium development; 10: full development; conditions: for Replicate 1 Score (nematode development) / Replicate 2 Score (nematode development): 50 L1-stage nematodes per well
Procedure: Samples of cyclotide 2 to be used in a dose-response assay were resuspended in 180 μl distilled H2O to create a stock solution of 161.3 μM. The dose-response assay was carried out in 96 well microtiter plates with each dose prepared in replicates of two. Each assay well contained 50 L1-stage nematodes which had been grown in S-medium (100 mM NaCl, 10 mM K citrate, pH 6.0, 50 mM KHPO4, pH 6.0, 3 mM CaCl2, 3 mM MgCl2, […], […], 10 mM MnCl2, 10 mM ZnSO4, 1 mM CuSO4) and had been allowed to feed on overnight cultured E. coli strain OP50, 30 μg/mL tetracycline and 30 μg/mL chloramphenicol. The total assay volume was 100 μL. The assay was scored at days 3 and 4 (Table 3).

[2] = system: Colletotrichum graminaria; assay: Dose-response fungal growth inhibition assay; assay type: cell-based; conditions: 2500 spores/mL in 1/2 strength PDB, 28° C., scored after 24 and 48 hours
Procedure: (§1) The anti-fungal activity of cyclotide 2 was tested against the crop pathogens Fusarium verticilloides and Colletotrichum graminaria, and the filamentous fungus Neurospora crassa. To conduct the assay, 100 μL of ½ strength potato dextrose broth (PDB) containing a spore suspension of 2500 spores/mL was added to each well in a 96 well microtiter plate containing dried HPLC fractions. The plates were mixed three times in approximately five minute intervals before incubation at 28° C., and were scored after 24 hours and 48 hours for inhibition of fungal growth. Inhibition of fungal growth was defined as little to no spore germination with no detectable hyphae growth.
(§2) The dose-response fungal assays were performed by resuspending the lyophilized cyclotide protein sample in 200 μL of a solution which consisted of fungal spores suspended in ½ strength potato dextrose broth (PDB) at a concentration of 2500 spores/mL. The spores were either from Fusarium verticilloides, Colletotrichum graminaria or Neurospora crassa. This resuspended sample represented a starting stock solution. A 0.5× dilution series was then prepared by removing 100 μL of the starting stock solution and adding it to a well in a 96 well tray containing 100 μL of spore suspension (2500 spores/mL), mixing thoroughly and then transferring 100 μL of the newly diluted cyclotide/spore suspension to a fresh well containing 100 μL of spore suspension etc., until all 12 columns of the row of sample in the 96 well tray were prepared. The final volume of the assay was then 100 μL. The plates were mixed three times in approximately five minute intervals before they were incubated at 28° C. and then were scored after 24 and 48 hours for inhibition of fungal growth. Inhibition of fungal growth was defined as little to no spore germination with no detectable hyphae growth.

Fusarium verticilloides = assay: Dose-response fungal growth inhibition assay; assay type: cell-based; conditions: 2500 spores/mL in 1/2 strength PDB, 28° C., scored after 24 and 48 hours
Procedure: as §1, §2

Neurospora crassa = assay: Dose-response fungal growth inhibition assay; assay type: cell-based; conditions: 2500 spores/mL in 1/2 strength PDB, 28° C., scored after 24 and 48 hours
Procedure: as §1, §2

Panagrellus redivivus = assay: Bioactivity of cyclotide 2 against the nematode Panagrellus redivivus (dose-response, % mortality); assay type: in vivo
Procedure: Panagrellus was grown in basal medium and diluted in sterile water to create a stock solution concentration of 200 nematodes/50 μL (the basal media inoculum). Using a multi-channel pipette, 50 μL of the nematode stock solution was added to each well of plates containing the fractionated crude extract. Tests were performed on duplicate samples. Once the activity was established, the HPLC peaks corresponding to the active wells were purified and dose-response assays were done.
Samples for a dose-response assay were resuspended in 40 μL and 4 wells of 8 μL, 6 μL, 4 μL and 2 μL were prepared in replicates of two. The volume was adjusted with the basal media inoculum to get a final volume of 50 μL and 200 nematodes per well. […] The percent mortality was calculated as ratio of dead nematodes against the total (living and dead) number present in the test wells.

Caenorhabditis elegans [3] = assay: Nematocidal activity of cyclotide 2 against C. elegans (dose-response, development score); assay type: in vivo; conditions: fractionated crude extract of Viola spp.
Sclerotinia = Sclerotinia hyphal growth inhibition dose-response assay; assay type: cell-based, Sclerotinia sclerotiorum; design: key: 0: no inhibition of fungal growth; 1: slight inhibition; 2: moderate inhibition; 3: extensive inhibition; 4: total inhibition; conditions: 48 hours
Procedure: To test the activity of cyclotide 2 against Sclerotinia, a Sclerotinia test inoculum was started by inoculating ½ strength PDB liquid with a sterile loop of hyphae from a Sclerotinia culture propagated on a ⅛ strength potato dextrose agar (PDA) plate. This liquid inoculum was held at room temperature (22° C.), without shaking, in the dark for 4 days, to allow sufficient growth of hyphae. The resulting suspension was macerated using a sterile polytron tissue grinder. The sample was then diluted with ½ strength PDB to the point of invisibility to the naked eye (observation under microscopy at 40× indicated the presence of 12-15 hyphal fragments per 50 μL aliquot of inoculum). Then, 50 μL of the inoculum was added to each well of a 96 shallow well bioassay plate.
The cyclotide sample, following fractionation and lyophilization, was resuspended in 100 μL ½ strength PDB, placed on ice and gently shaken. Then, 50 μL of resuspended sample was added to each corresponding well of the bioassay plate to give a final test volume of 100 μL and […] per well. In the inoculum control wells, 50 μL of inoculum and 50 μL of ½ strength PDB were used, while the media control wells contained 100 μL of ½ strength PDB. The wells were covered with Breathe-Easy membranes (Web Scientific Ltd., Cheshire, U.K.) and placed in the dark on the benchtop.
For the dose-response assay, lyophilized cyclotide 2 was resuspended in 40 μL of ½ strength PDB solution. Then, 20 μL of the resuspended sample was pipetted into 4 different wells containing either 8 μL, 6 μL, 4 μL or 2 μL of suspension. The final volume in each well was adjusted to 100 μL with the Sclerotinia test inoculum. The plates were covered with Breathe-Easy membranes (Web Scientific Ltd., Cheshire, U.K.) and placed in the dark on the benchtop.

“cyclotide 2: bioactive cyclotide purified from Viola spp. extract; SEQ ID NO:6 GIPCGESCVWIPCISAAIGCSCKSKVCYRN (cyclo(GIPCGESCVWIPCISAAIGCSCKSKVCYRN); not fully specified (bridges); also: three disulfide bonds (cystine knot), pairings not given here; listed as Viola sp.)” was tested. Which “Replicate 1 Score (nematode development)” value (Caenorhabditis elegans [1]; 0.81 μM) did it give?
Its value is 10.

What about the “Replicate 2 Score (nematode development)” value (Caenorhabditis elegans [1]; 0.81 μM) of the same substance?
The value was 10.

And the “Replicate 1 Score (nematode development)” value (Caenorhabditis elegans [1]; 1.62 μM)?
Its value is 10.

What about the “Replicate 2 Score (nematode development)” value (Caenorhabditis elegans [1]; 1.62 μM) of the same substance?
The value was 10.

What about the “Replicate 1 Score (nematode development)” value (Caenorhabditis elegans [1]; 3.24 μM) of the same substance?
Its value is 5.

What about the “Replicate 2 Score (nematode development)” value (Caenorhabditis elegans [1]; 3.24 μM) of the same substance?
Its value is 5.

And the “Replicate 1 Score (nematode development)” value (Caenorhabditis elegans [1]; 6.48 μM)?
The value was 2.

And the “Replicate 2 Score (nematode development)” value (Caenorhabditis elegans [1]; 6.48 μM)?
The value was 2.

What about the “Replicate 1 Score (nematode development)” value (Caenorhabditis elegans [1]; 16.2 μM) of the same substance?
The value was 1.

What about the “Replicate 2 Score (nematode development)” value (Caenorhabditis elegans [1]; 16.2 μM) of the same substance?
Its value is 1.

And the LD90 (Caenorhabditis elegans [1]; recorded after day three)?
The LD90 was 6.48 µM.

What about the “Cyclotide concentration at which total inhibition of fungal growth is observed” value [2] of the same substance?
Its value is 2.5 µM.

What about the “Cyclotide concentration at which total inhibition of fungal growth is observed” value (Fusarium verticilloides) of the same substance?
The value was 10 µM.

And the “Cyclotide concentration at which total inhibition of fungal growth is observed” value (Neurospora crassa)?
The value was 1.25 µM.

What about the “Scored at 18 hrs (% mortality)” value (Panagrellus redivivus; 10.07 μM) of the same substance?
Its value is 60%.

What about the “Scored at 24 hrs (% mortality)” value (Panagrellus redivivus; 10.07 μM) of the same substance?
The value was 74%.

And the “Scored at 18 hrs (% mortality)” value (Panagrellus redivivus; 20.13 μM)?
Its value is greater than 60%.

What about the “Scored at 24 hrs (% mortality)” value (Panagrellus redivivus; 20.13 μM) of the same substance?
The value was 78%.

And the “Scored at 18 hrs (% mortality)” value (Panagrellus redivivus; 30.20 μM)?
The value was 70%.

And the “Scored at 24 hrs (% mortality)” value (Panagrellus redivivus; 30.20 μM)?
Its value is 80%.

What about the “Scored at 18 hrs (% mortality)” value (Panagrellus redivivus; 40.27 μM) of the same substance?
The value was 85%.

And the “Scored at 24 hrs (% mortality)” value (Panagrellus redivivus; 40.27 μM)?
Its value is 90%.

What about the “Scored at 18 hrs (% mortality)” value (Panagrellus redivivus; 50.34 μM) of the same substance?
Its value is 85%.

What about the “Scored at 24 hrs (% mortality)” value (Panagrellus redivivus; 50.34 μM) of the same substance?
Its value is 95%.

And the “Scored at 18 hrs (% mortality)” value (Panagrellus redivivus; 60.40 μM)?
Its value is 90%.

What about the “Scored at 24 hrs (% mortality)” value (Panagrellus redivivus; 60.40 μM) of the same substance?
Its value is roughly 100%.

And the “Activity of HPLC peak against Panagrellus redivivus” value (Panagrellus redivivus; fractionated crude extract of Viola spp.)?
The value was “specifically active”.

And the “LD90 concentration (concentration at which 90% of the nematodes are killed)” value (Panagrellus redivivus; within 24 hrs observation time)?
Its value is 40.27 µM.

What about the “Activity of HPLC peak against Caenorhabditis elegans” value (Caenorhabditis elegans [3]) of the same substance?
The value was “specifically active”.

What about the “Score (inhibition of hyphal growth)” value (Sclerotinia; 1.67 μM) of the same substance?
Its value is 1.

What about the “Score (inhibition of hyphal growth)” value (Sclerotinia; 3.33 μM) of the same substance?
The value was 2.

What about the “Score (inhibition of hyphal growth)” value (Sclerotinia; 5.0 μM) of the same substance?
The value was 4.

And the “Score (inhibition of hyphal growth)” value (Sclerotinia; 6.67 μM)?
Its value is 3.
